Results on 21 compounds are retold here after BindingDB's records for doi:10.1021/jm9508696 (Sandoz Research Institute, 1996).

One assay concerns the target T1, Dimer of Gag-Pol polyprotein [489-587] (Human immunodeficiency virus 1, UniProt P12497).
T1 construct: 489-587
The assay is described as follows: Protease Inhibition Assay.
Conditions: not given
Here is the method: Enzymatic activity was measured by following cleavage of the substrate H-Lys-Ala-Arg-Val-Leu-pNph-Glu-Ala-Nle-NH2. Products of the cleavage reaction were quantified by HPLC detection
What is called Ki is a measure of affinity in units of concentration, obtained from inhibition or displacement. Low values mean a stronger hold on the target, high ones a looser hold on the target. In turn, `COc1ccc(CN[C@@H](C(=O)N[C@H]2c3ccccc3C[C@H]2O)[C@H](O)[C@H](Cc2ccccc2)NC(=O)[C@@H](NC(=O)CCc2ccccc2O)C(C)(C)C)cc1` [(2R,3R,4S)-3-hydroxy-N-[(1S,2R)-2-hydroxy-2,3-dihydro-1H-inden-1-yl]-4-[(2S)-2-[3-(2-hydroxyphenyl)propanamido]-3,3-dimethylbutanamido]-2-{[(4-methoxyphenyl)methyl]amino}-5-phenylpentanamide] gave an inhibitory constant (Ki) of 13 nM.
`COc1ccc(CN[C@@H](C(=O)N[C@H]2c3ccccc3C[C@H]2O)[C@H](O)[C@H](Cc2ccccc2)NC(=O)[C@@H](NC(=O)CCc2ccc(OC)c(O)c2)C(C)(C)C)cc1` [(2R,3R,4S)-3-hydroxy-N-[(1S,2R)-2-hydroxy-2,3-dihydro-1H-inden-1-yl]-4-[(2S)-2-[3-(3-hydroxy-4-methoxyphenyl)propanamido]-3,3-dimethylbutanamido]-2-{[(4-methoxyphenyl)methyl]amino}-5-phenylpentanamide]: affinity was put at a Ki of 7.7 nM.
`COc1ccc(CN[C@@H](C(=O)N[C@H]2c3ccccc3C[C@H]2O)[C@H](O)[C@H](Cc2ccccc2)NC(=O)[C@@H](NC(=O)/C=C/c2ccc(OC)cc2O)C(C)(C)C)cc1` [(2R,3R,4S)-3-hydroxy-N-[(1S,2R)-2-hydroxy-2,3-dihydro-1H-inden-1-yl]-4-[(2S)-2-[(2E)-3-(2-hydroxy-4-methoxyphenyl)prop-2-enamido]-3,3-dimethylbutanamido]-2-{[(4-methoxyphenyl)methyl]amino}-5-phenylpentanamide] showed a Ki of 18 nM.
On the same count and under the same terms, the result for `COc1ccc(CN[C@@H](C(=O)N[C@H]2c3ccccc3C[C@H]2O)[C@H](O)[C@H](Cc2ccccc2)NC(=O)[C@@H](NC(=O)/C=C/c2ccc(OC)c(O)c2)C(C)(C)C)cc1` [(2R,3R,4S)-3-hydroxy-N-[(1S,2R)-2-hydroxy-2,3-dihydro-1H-inden-1-yl]-4-[(2S)-2-[(2E)-3-(3-hydroxy-4-methoxyphenyl)prop-2-enamido]-3,3-dimethylbutanamido]-2-{[(4-methoxyphenyl)methyl]amino}-5-phenylpentanamide] reads 5.8 nM; that for `COc1ccc(CN[C@@H](C(=O)N[C@H]2c3ccccc3C[C@H]2O)[C@H](O)[C@H](Cc2ccccc2)NC(=O)[C@@H](NC(=O)CSc2nncn2C)C(C)(C)C)cc1` [(2R,3R,4S)-4-[(2S)-3,3-dimethyl-2-{2-[(4-methyl-4H-1,2,4-triazol-3-yl)sulfanyl]acetamido}butanamido]-3-hydroxy-N-[(1S,2R)-2-hydroxy-2,3-dihydro-1H-inden-1-yl]-2-{[(4-methoxyphenyl)methyl]amino}-5-phenylpentanamide], 5.8 nM.
In turn, `COc1ccc(CN[C@@H](C(=O)N[C@H]2c3ccccc3C[C@H]2O)[C@H](O)[C@H](Cc2ccccc2)NC(=O)[C@@H](NC(=O)CSc2nnc(C)s2)C(C)(C)C)cc1` [(2R,3R,4S)-4-[(2S)-3,3-dimethyl-2-{2-[(5-methyl-1,3,4-thiadiazol-2-yl)sulfanyl]acetamido}butanamido]-3-hydroxy-N-[(1S,2R)-2-hydroxy-2,3-dihydro-1H-inden-1-yl]-2-{[(4-methoxyphenyl)methyl]amino}-5-phenylpentanamide] displayed an inhibitory constant (Ki) of 8 nM.
`CC(C)(C)[C@H](NC(=O)OCc1ccccc1)C(=O)N[C@@H](Cc1ccccc1)[C@@H](O)[C@@H](NCc1ccc(CNC(=O)CCc2nc3ccccc3[nH]2)cc1)C(=O)N[C@H]1c2ccccc2C[C@H]1O` [benzyl N-[(1S)-1-{[(2S,3R,4R)-4-{[(4-{[3-(1H-1,3-benzodiazol-2-yl)propanamido]methyl}phenyl)methyl]amino}-3-hydroxy-4-{[(1S,2R)-2-hydroxy-2,3-dihydro-1H-inden-1-yl]carbamoyl}-1-phenylbutan-2-yl]carbamoyl}-2,2-dimethylpropyl]carbamate] showed a Ki of 4.1 nM.
Compound `COc1ccc(CN[C@@H](C(=O)N[C@H]2c3ccccc3C[C@H]2O)[C@H](O)[C@H](Cc2ccccc2)NC(=O)[C@@H](NC(=O)OC(C)(C)C)C(C)(C)C)cc1` [tert-butyl N-[(1S)-1-{[(2S,3R,4R)-3-hydroxy-4-{[(1S,2R)-2-hydroxy-2,3-dihydro-1H-inden-1-yl]carbamoyl}-4-{[(4-methoxyphenyl)methyl]amino}-1-phenylbutan-2-yl]carbamoyl}-2,2-dimethylpropyl]carbamate] registered a Ki of 210 nM.

Staying with this assay, now noted: pH 6.25; 37 °C.
The compound `COc1ccc(CN[C@@H](C(=O)N[C@H]2c3ccccc3C[C@H]2O)[C@H](O)[C@H](Cc2ccccc2)NC(=O)C(CC(=O)O)NC(=O)OCc2ccccc2)cc1` (stereo partly drawn) [3-{[(benzyloxy)carbonyl]amino}-3-{[(2S,3R,4R)-3-hydroxy-4-{[(1S,2R)-2-hydroxy-2,3-dihydro-1H-inden-1-yl]carbamoyl}-4-{[(4-methoxyphenyl)methyl]amino}-1-phenylbutan-2-yl]carbamoyl}propanoic acid] yielded a Ki of 22 nM.
`COc1ccc(CN[C@@H](C(=O)N[C@H]2c3ccccc3C[C@H]2O)[C@H](O)[C@H](Cc2ccccc2)NC(=O)OC(C)(C)C)cc1` [(2R,3S,4S,1 S,2 R)-4-[[(1,1-Dimethylethoxy0carbonyl]amino]-3-hydroxy-2-[(4-methoxybenzyl)amino]-5-phenylpentan(2-hydroxy-1 indanyl)amide] came in with a Ki of 65 nM.
`CCC(C)C(NC(=O)OCc1ccccc1)C(=O)N[C@@H](Cc1ccccc1)[C@@H](O)[C@@H](NCc1ccc(OC)cc1)C(=O)N[C@H]1c2ccccc2C[C@H]1O` (stereo partly drawn) [benzyl N-(1-{[(2S,3R,4R)-3-hydroxy-4-{[(1S,2R)-2-hydroxy-2,3-dihydro-1H-inden-1-yl]carbamoyl}-4-{[(4-methoxyphenyl)methyl]amino}-1-phenylbutan-2-yl]carbamoyl}-2-methylbutyl)carbamate] yielded a Ki of 8.2 nM.
With `COc1ccc(CN[C@@H](C(=O)N[C@H]2c3ccccc3C[C@H]2O)[C@H](O)[C@H](Cc2ccccc2)NC(=O)C(NC(=O)OCc2ccccc2)C(C)C)cc1` (stereo partly drawn) [benzyl N-(1-{[(2S,3R,4R)-3-hydroxy-4-{[(1S,2R)-2-hydroxy-2,3-dihydro-1H-inden-1-yl]carbamoyl}-4-{[(4-methoxyphenyl)methyl]amino}-1-phenylbutan-2-yl]carbamoyl}-2-methylpropyl)carbamate], affinity was put at a Ki of 8.1 nM.
Take `COc1ccc(CN[C@@H](C(=O)N[C@H]2c3ccccc3C[C@H]2O)[C@H](O)[C@H](Cc2ccccc2)NC(=O)C(CC(N)=O)NC(=O)OCc2ccccc2)cc1` (stereo partly drawn) [benzyl N-(2-carbamoyl-1-{[(2S,3R,4R)-3-hydroxy-4-{[(1S,2R)-2-hydroxy-2,3-dihydro-1H-inden-1-yl]carbamoyl}-4-{[(4-methoxyphenyl)methyl]amino}-1-phenylbutan-2-yl]carbamoyl}ethyl)carbamate]: the Ki was 15 nM.
`CC(C)(C)OC(=O)N[C@@H](Cc1ccccc1)[C@@H](O)[C@@H](NCc1ccc(CNC(=O)Nc2ccccc2)cc1)C(=O)N[C@H]1c2ccccc2C[C@H]1O` [tert-butyl N-[(2S,3R,4R)-3-hydroxy-4-{[(1S,2R)-2-hydroxy-2,3-dihydro-1H-inden-1-yl]carbamoyl}-1-phenyl-4-{[(4-{[(phenylcarbamoyl)amino]methyl}phenyl)methyl]amino}butan-2-yl]carbamate] gave an inhibition constant Ki of 33 nM.
Regarding `CC(C)(C)OC(=O)N[C@@H](Cc1ccccc1)[C@@H](O)[C@@H](NCc1ccc(OCCO)cc1)C(=O)N[C@H]1c2ccccc2C[C@H]1O` [tert-butyl N-[(2S,3R,4R)-3-hydroxy-4-{[(1S,2R)-2-hydroxy-2,3-dihydro-1H-inden-1-yl]carbamoyl}-4-({[4-(2-hydroxyethoxy)phenyl]methyl}amino)-1-phenylbutan-2-yl]carbamate], the inhibition constant (Ki) was 80 nM.
In the case of `CC(C)(C)OC(=O)N[C@@H](Cc1ccccc1)[C@@H](O)[C@@H](NCc1ccc(OCCN2CCOCC2)cc1)C(=O)N[C@H]1c2ccccc2C[C@H]1O` [tert-butyl N-[(2S,3R,4R)-3-hydroxy-4-{[(1S,2R)-2-hydroxy-2,3-dihydro-1H-inden-1-yl]carbamoyl}-4-[({4-[2-(morpholin-4-yl)ethoxy]phenyl}methyl)amino]-1-phenylbutan-2-yl]carbamate], the Ki came out at 130 nM.
In turn, `CC(C)(C)OC(=O)N[C@@H](Cc1ccccc1)[C@@H](O)[C@@H](NCc1ccccc1)C(=O)NCc1ccccc1` [tert-butyl N-[(2S,3R,4R)-4-(benzylamino)-4-(benzylcarbamoyl)-3-hydroxy-1-phenylbutan-2-yl]carbamate] displayed an inhibition constant Ki of 2500 nM.
Turning to `CC(C)(C)OC(=O)N[C@@H](Cc1ccccc1)[C@@H](O)[C@@H](NCc1ccc(OCCO)cc1)C(=O)NCc1ccccc1` [tert-butyl N-[(2S,3R,4R)-4-(benzylcarbamoyl)-3-hydroxy-4-({[4-(2-hydroxyethoxy)phenyl]methyl}amino)-1-phenylbutan-2-yl]carbamate], the Ki amounted to 1200 nM.
Regarding `COc1ccc(CN[C@@H](C(=O)N[C@H](C(=O)NCc2nc3ccccc3[nH]2)C(C)C)[C@H](O)[C@H](Cc2ccccc2)NC(=O)OC(C)(C)C)cc1` [tert-butyl N-[(2S,3R,4R)-4-{[(1S)-1-[(1H-1,3-benzodiazol-2-ylmethyl)carbamoyl]-2-methylpropyl]carbamoyl}-3-hydroxy-4-{[(4-methoxyphenyl)methyl]amino}-1-phenylbutan-2-yl]carbamate], the Ki is 7.7 nM.
Still for that read-out and setting: the figure for `CCOc1ccc(CN[C@@H](C(=O)N[C@H]2c3ccccc3C[C@H]2O)[C@H](O)[C@H](Cc2ccccc2)NC(=O)OC(C)(C)C)cc1` [tert-butyl N-[(2S,3R,4R)-4-{[(4-ethoxyphenyl)methyl]amino}-3-hydroxy-4-{[(1S,2R)-2-hydroxy-2,3-dihydro-1H-inden-1-yl]carbamoyl}-1-phenylbutan-2-yl]carbamate] is 92 nM.
`CC(C)(C)OC(=O)N[C@@H](Cc1ccccc1)[C@@H](O)[C@@H](NCc1ccc(CNC(=O)CCc2nc3ccccc3[nH]2)cc1)C(=O)NCc1ccccc1` [tert-butyl N-[(2S,3R,4R)-4-{[(4-{[3-(1H-1,3-benzodiazol-2-yl)propanamido]methyl}phenyl)methyl]amino}-4-(benzylcarbamoyl)-3-hydroxy-1-phenylbutan-2-yl]carbamate] showed a Ki of 680 nM.
